From patent publication EP0648123B1, “INHIBITORS OF PROTEIN TYROSINE-PHOSPHATASE $g(a) FOR TREATMENT OF TUMORS” (NATIONAL UNIVERSITY OF SINGAPORE, priority 1992, dated 1994)
Several values for one entry are separate records, joined by “and”; a condition that tells them apart may be missing. Equal values may be shown once.

What was measured:
[1] = system: α-21 cells; test: Effect of sodium orthovanadate on proliferation of PTPα-overexpressing cells (cell count); type: cell-based, Fischer rat; conditions: for cell count, set #3 / cell count, set #2 (+0.1% FCS) / Number of cells/5 cm dish / cell count, set #1 (+10% FCS): α-21; for cell count, set #3 / Number of cells/5 cm dish / cell count, set #1 (+10% FCS): 10% FCS; for cell count, set #3: then another 48 h in 10% FCS without vanadate
Procedure: (§1) 1. Cells were grown on 5 cm petri dishes in DME medium with 10% FCS for 48 h. After 48 h of growth, each dish of α-7, α-21, and α-29 cells contained about 0.4 x 10^5 to 0.6 x 10^5 cells, and each dish of REF-neo cells contained 1.8 x 10^5 cells. The medium was discarded, and fresh medium containing 10% FCS and the indicated concentration (below) of sodium orthovanadate was added to the cells. After 48 h of culture in this medium the cells from two replicate dishes were harvested and counted. […]
(§2) 2. Cells (control cells = REF-neo, PTPα-overexpressing cells = α-21) were grown on 5 cm petri dishes in DME medium with 10% FCS for 48 h. The medium was discarded, and fresh medium containing 10% FCS and the indicated concentration (below) of sodium orthovanadate was added to the cells. After 72 h of culture in this medium the cells from two replicate dishes were harvested and counted. The results are shown in Table 3 below and are essentially the same as in 1 above.
3. PTPα-overexpressing cells (α-21) were grown for 48 h (to about 60% confluency) in DME medium containing 10% FCS. The medium was removed and replaced with medium containing the indicated concentration of sodium orthovanadate (below) and either 10% (sets #1 and #3) or 0.1% FCS (set #2). The cells were cultured for 48 h and counted (sets #1 and 2), or the medium was removed from set #3 and replaced with medium containing 10% FCS without sodium orthovanadate and cultured for another 48 h before counting. […]

[2] = system: REF α-21 PTPα-overexpressing cells; test: Tumourigenesis by REF α-21 cells grown and injected with vanadate; type: in vivo, nude mice
Procedure: The α-21 cells were grown in DME medium containing 10% FCS and then in DME medium with 0.1% FCS in the presence of 50 µM sodium orthovanadate for 48 h. The cells were then harvested by trypsinisation, centrifuged to pellet the cells, and the cell pellet resuspended in DME containing 50 µM sodium orthovanadate. Other α-21 cells were grown and prepared in a similar manner, except in the absence of sodium orthovanadate throughout. The resuspended cells (plus or minus vanadate) were subcutaneously injected into nude mice (2 x 10^6 cells/mouse, 4 mice for each treatment), and nine days later the tumour size was measured.

[3] = system: REF-neo cells; test: Effect of sodium orthovanadate on proliferation of control cells (cell count); type: cell-based, Fischer rat; conditions: 10% FCS
Procedure: as §1, §2

[4] = system: α-7 cells; test: Effect of sodium orthovanadate on proliferation of PTPα-overexpressing cells (cell count); type: cell-based, Fischer rat; conditions: 10% FCS, 48 h
Procedure: as §1

[5] = system: α-29 cells; test: as above; type: cell-based, Fischer rat; conditions: 10% FCS, 48 h
Procedure: as §1

[6] = system: α-21 cells; test: Colony forming ability in soft agar in the presence of sodium orthovanadate; type: cell-based, Fischer rat; conditions: 9 days
Procedure: The α-21 cells were grown in soft agar in the presence of the indicated concentration of sodium orthovanadate (below) on duplicate dishes. After 9 days the colonies were counted on each dish and the approximate size of the colonies noted. […]

Compound: [Na+].[Na+].[Na+].[O]=[V]([O-])([O-])[O-] [Vanadate, sodium orthovanadate]
- toxicity to α-21 cells (resumption of proliferation once vanadate is removed) ([1]; comparison of cell numbers in sets #1 and 3): not irreversibly toxic
- cell count, set #3 ([1]; vanadate 5 µM, 48 h): 2.90 x 10^6
- cell count, set #2 (+0.1% FCS) ([1]; vanadate 5 µM, 48 h): 1.18 x 10^6
- Number of cells/5 cm dish ([1]; vanadate 5 µM, 48 h): 1.42 x 10^6 cells/5 cm dish
- cell count, set #1 (+10% FCS) ([1]; vanadate 5 µM, 48 h): 1.30 x 10^6
- Number of cells/5 cm dish ([1]; vanadate 5 µM, 72 h): 1.20 x 10^6 cells/5cm dish
- cell count, set #3 ([1]; vanadate 30 µM, 48 h): 1.46 x 10^6
- cell count, set #2 (+0.1% FCS) ([1]; vanadate 30 µM, 48 h): 5.40 x 10^5
- Number of cells/5 cm dish ([1]; vanadate 30 µM, 48 h): 7.00 x 10^5 cells/5 cm dish
- cell count, set #1 (+10% FCS) ([1]; vanadate 30 µM, 48 h): 5.00 x 10^5
- Number of cells/5 cm dish ([1]; vanadate 30 µM, 72 h): 4.80 x 10^5 cells/5cm dish
- cell count, set #3 ([1]; vanadate 60 µM, 48 h): 9.60 x 10^5
- cell count, set #2 (+0.1% FCS) ([1]; vanadate 60 µM, 48 h): 3.80 x 10^5
- Number of cells/5 cm dish ([1]; vanadate 60 µM, 48 h): 3.70 x 10^5 cells/5 cm dish
- cell count, set #1 (+10% FCS) ([1]; vanadate 60 µM, 48 h): 3.20 x 10^5
- Number of cells/5 cm dish ([1]; vanadate 60 µM, 72 h): 2.60 x 10^5 cells/5cm dish
- cell count, set #3 ([1]; vanadate 120 µM, 48 h): 5.20 x 10^5
- cell count, set #2 (+0.1% FCS) ([1]; vanadate 120 µM, 48 h): 2.00 x 10^5
- Number of cells/5 cm dish ([1]; vanadate 120 µM, 48 h): 1.60 x 10^5 cells/5 cm dish
- cell count, set #1 (+10% FCS) ([1]; vanadate 120 µM, 48 h): 1.80 x 10^5
- Number of cells/5 cm dish ([1]; vanadate 120 µM, 72 h): 1.76 x 10^5 cells/5cm dish
- average tumour size ([2]; 4 mice, α-21 cells grown and injected with 50 µM sodium orthovanadate, nine days later): 0.618 cm^2
- tumour size ([2]; individual mice, α-21 cells grown and injected with 50 µM sodium orthovanadate, subcutaneous, 2 x 10^6 cells/mouse, nine days later): 0.30 x 0.8 cm = 0.24 cm^2 and 0.70 x 1.5 cm = 1.05 cm^2 and 0.40 x 0.7 cm = 0.28 cm^2 and 0.75 x 1.2 cm = 0.90 cm^2
- tumours smaller than those arising from cells grown and injected in the absence of vanadate ([2]; on average, 50 µM sodium orthovanadate, nine days): 2.6 times
- Number of cells/5 cm dish ([3]; vanadate 5 µM, 48 h): 1.10 x 10^6 cells/5 cm dish
- Number of cells/5 cm dish ([3]; vanadate 5 µM, 72 h): 1.90 x 10^6 cells/5cm dish
- Number of cells/5 cm dish ([3]; vanadate 30 µM, 48 h): 1.04 x 10^6 cells/5 cm dish
- Number of cells/5 cm dish ([3]; vanadate 30 µM, 72 h): 1.80 x 10^6 cells/5cm dish
- Number of cells/5 cm dish ([3]; vanadate 60 µM, 48 h): 9.90 x 10^5 cells/5 cm dish
- Number of cells/5 cm dish ([3]; vanadate 60 µM, 72 h): 1.60 x 10^6 cells/5cm dish
- Number of cells/5 cm dish ([3]; vanadate 120 µM, 48 h): 7.60 x 10^5 cells/5 cm dish
- Number of cells/5 cm dish ([3]; vanadate 120 µM, 72 h): 6.70 x 10^5 cells/5cm dish
- Number of cells/5 cm dish ([4]; vanadate 5 µM): 1.72 x 10^6 cells/5 cm dish
- Number of cells/5 cm dish ([4]; vanadate 30 µM): 1.41 x 10^6 cells/5 cm dish
- Number of cells/5 cm dish ([4]; vanadate 60 µM): 1.18 x 10^6 cells/5 cm dish
- Number of cells/5 cm dish ([4]; vanadate 120 µM): 5.80 x 10^5 cells/5 cm dish
- Number of cells/5 cm dish ([5]; vanadate 5 µM): 1.62 x 10^6 cells/5 cm dish
- Number of cells/5 cm dish ([5]; vanadate 30 µM): 7.20 x 10^5 cells/5 cm dish
- Number of cells/5 cm dish ([5]; vanadate 60 µM): 4.70 x 10^5 cells/5 cm dish
- Number of cells/5 cm dish ([5]; vanadate 120 µM): 2.10 x 10^5 cells/5 cm dish
- Number of colonies Average ([6]; vanadate 5 µM): 1260
- Number of colonies Exp 1 ([6]; vanadate 5 µM): 1127
- Number of colonies Exp 2 ([6]; vanadate 5 µM): 1392
- Number of colonies Average ([6]; vanadate 10 µM): 1196
- Number of colonies Exp 1 ([6]; vanadate 10 µM): 1458
- Number of colonies Exp 2 ([6]; vanadate 10 µM): 934
- Number of colonies Average ([6]; vanadate 20 µM): 667
- Number of colonies Exp 1 ([6]; vanadate 20 µM): 692
- Number of colonies Exp 2 ([6]; vanadate 20 µM): 641
- Number of colonies Average ([6]; vanadate 40 µM): 292
- Number of colonies Exp 1 ([6]; vanadate 40 µM): 312
- Number of colonies Exp 2 ([6]; vanadate 40 µM): 271
- Number of colonies Average ([6]; vanadate 80 µM): 82
- Number of colonies Exp 1 ([6]; vanadate 80 µM): 90
- Number of colonies Exp 2 ([6]; vanadate 80 µM): 73
